Measurements published in publication PMC5515969, “Effects of 31 FDA approved small-molecule kinase inhibitors on isolated rat liver mitochondria” (Archives of Toxicology, 2016).
Structures can show the parent of a compound that is named as a salt. Where two headings read alike, the source gives them in different places. Marks after values point to notes of the source that are not given here.

Tests used:
[1] = system: isolated rat liver mitochondria; test: Mitochondrial oxygen consumption (glutamate/malate or succinate driven, state 4 and state 3); format: biochemical; conditions: DMSO treated samples set as 1; for State 3 respiration driven by succinate at 10XCmax: key: 0 indicates that the drug had no effects (negative); for State 3 respiration driven by succinate at 1XCmax: key: 0 indicates that the drug had no effects (negative)
Description: Rats were anesthetized by an intraperitoneal injection of Nembutal and the liver perfused with PBS to remove the blood. The liver was then cut into small pieces and homogenized using a Dounce type homogenizer in the ice-cold isolation buffer (IB) containing 200 mM sucrose, 10 mM Tris-MOPS, 1 mM EGTA (pH 7.4). The sample was then centrifuged at 600g for 10 min. The supernatant was further centrifuged at 7500g for 10 min, and the pellets was washed once with the IB and centrifuged again at 7500g for 10 min to collect mitochondria. […] Before drug treatment, the protein concentration was adjusted to 1 mg/ml using appropriate buffer. […] Briefly, mitochondrial and cytosolic fractions from four different preparations using four rats were diluted using the Laemmli protein loading buffer and subject to SDS-PAGE with 4–20% gradient gels. The proteins were blotted to PVDF membranes and detected using antibodies against GAPDH, ATP5A, UQCRC2, SDHB, and NDUFB8.
The aliquoted stock solutions were kept for less than one month and each tube was used only once. The KIs were added to the mitochondria at 1:1000 dilutions. […] The Cmax data were from clinical trials which used FDA recommend dosages, route of administration, and duration. […] The final concentration of DMSO for drug treatment was always 0.1%, and control treatments were 0.1% DMSO.
Briefly, mitochondria were incubated with the KIs for 5 min, and then split evenly and loaded to the sample tubes of two Oxytherm systems (Hansatech Instruments Ltd), with one system used for measuring glutamate/malate driven respiration and the other succinate-driven respiration, both of which were defined as state 4 respiration. After 3 min, ADP was added to measure the maximal oxygen consumption rate, which was defined as state 3 respiration. […] The oxygen consumption rate of DMSO-treated samples (controls) was set as 1.

[2] = system: RCC I; test: RCC I activity in submitochondrial particles; format: biochemical, rat; design: key to RCC I at 10XCmax / RCC I at 100XCmax / RCC I at 50XCmax / RCC I at 30XCmax / RCC I at 20XCmax: activity relative to DMSO-treated controls (control set as 1 = 100%); conditions: 10XCmax; relative to DMSO treated samples
Description: (§1) KIs were incubated with submitochondrial particles (1 mg/ml) for 15 min and then RCC I–V activities measured. […] The activities of DMSO-treated samples (controls) were set as 1. […] The difference between the activity from rotenone-containing buffer and rotenone-absent buffer was considered as RCC I activity. […] For measuring RCC I/V and II activity, the changes in absorbance at 340 and 600 nm, respectively, were determined every 1 min for 6 min. For measuring RCC III and RCC IV, the changes in absorbance at 550 nm were measured every 10 s for 2 min.

[3] = target: T1, RCC II (Rattus norvegicus, UniProt P21913+Q641Z9+Q6PCT8+Q920L2); test: RCC II activity in submitochondrial particles; format: biochemical; design: key: activity relative to DMSO-treated controls (control set as 1 = 100%); conditions: relative to DMSO treated samples
T1 construct: Submitochondrial particles were prepared by subjecting the intact mitochondria to three successive freeze–thaw cycles; from tissue; host or cells: rat liver mitochondria, used as submitochondrial particles
T1 sequence (Q920L2 35-656): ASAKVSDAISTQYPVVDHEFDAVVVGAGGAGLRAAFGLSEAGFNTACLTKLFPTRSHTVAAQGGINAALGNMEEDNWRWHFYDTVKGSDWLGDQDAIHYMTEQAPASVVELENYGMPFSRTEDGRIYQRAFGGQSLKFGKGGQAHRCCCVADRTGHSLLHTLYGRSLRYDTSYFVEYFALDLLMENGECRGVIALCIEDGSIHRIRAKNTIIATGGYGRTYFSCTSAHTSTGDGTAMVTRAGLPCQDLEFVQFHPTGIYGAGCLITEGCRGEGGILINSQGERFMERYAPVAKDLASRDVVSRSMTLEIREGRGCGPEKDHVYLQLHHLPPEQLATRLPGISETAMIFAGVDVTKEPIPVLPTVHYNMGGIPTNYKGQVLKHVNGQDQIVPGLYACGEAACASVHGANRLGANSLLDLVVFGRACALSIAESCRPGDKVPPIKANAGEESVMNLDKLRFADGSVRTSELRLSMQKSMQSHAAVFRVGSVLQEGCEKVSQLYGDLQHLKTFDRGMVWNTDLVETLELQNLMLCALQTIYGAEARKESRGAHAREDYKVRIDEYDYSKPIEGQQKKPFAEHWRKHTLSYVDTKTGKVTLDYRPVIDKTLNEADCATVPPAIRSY
T1 sequence (P21913 31-282): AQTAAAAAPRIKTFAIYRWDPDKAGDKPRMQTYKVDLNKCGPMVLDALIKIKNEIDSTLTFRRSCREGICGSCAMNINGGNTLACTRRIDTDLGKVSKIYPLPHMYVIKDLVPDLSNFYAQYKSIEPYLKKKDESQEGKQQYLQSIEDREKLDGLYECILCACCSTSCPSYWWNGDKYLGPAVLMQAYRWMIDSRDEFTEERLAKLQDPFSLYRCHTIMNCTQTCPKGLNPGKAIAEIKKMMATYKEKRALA
T1 sequence (Q641Z9 1-169): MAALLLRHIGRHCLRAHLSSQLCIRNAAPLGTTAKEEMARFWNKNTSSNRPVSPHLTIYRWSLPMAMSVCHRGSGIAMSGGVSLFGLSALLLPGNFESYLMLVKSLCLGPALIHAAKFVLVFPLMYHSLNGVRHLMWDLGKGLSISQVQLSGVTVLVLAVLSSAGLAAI
T1 sequence (Q6PCT8 57-159): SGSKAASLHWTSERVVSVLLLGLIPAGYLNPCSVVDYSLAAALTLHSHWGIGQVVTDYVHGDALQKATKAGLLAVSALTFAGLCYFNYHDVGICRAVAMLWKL
Description: as §1

[4] = system: RCC V; test: RCC V activity in submitochondrial particles; format: biochemical, rat; conditions: relative to DMSO treated samples; for RCC V at 5XCmax: key: 0 indicates that the drug had no effects (negative)
Description: as §1

[5] = system: isolated rat liver mitochondria; test: Mitochondrial inner membrane potential (MMP), Rhodamine 123; format: biochemical; conditions: difference in signal between KI and DMSO treated samples at the end of experiments
From the text: Fig. 3 KI effects on mitochondrial inner membrane potential (MMP). […] In a, c, data are means and standard derivations from three separate experiments. *p < 0.05 as compared to DMSO-treated samples at the end of experiments. In b, data are means of two independent experiments

[6] = system: isolated rat liver mitochondria; test: Mitochondrial swelling (absorbance at 535 nm); format: biochemical; conditions: difference in signal between KI and DMSO treated samples at the end of experiments; for Swelling 5XCmax: key: 0 indicates that the drug had no effects (negative)
[7] = system: isolated rat liver mitochondria; conditions: positive control alamethicin treated samples
[8] = design: method as in product labeling; conditions: ref product labeling, cited from earlier work; for Labeling for cardiotoxicity: BBW: black box warning, W&P: Warnings and Precautions
[9] = cited from earlier work
[10] = system: isolated rat liver mitochondria; test: Mitochondrial ROS production (CM-H2DCFDA); conditions: DMSO treated samples set as 1
[11] = cited from earlier work; for DILI potential (based on labeling): 1 = DILI positive, 0 = negative
[12] = read-out: Cmax at µM, therapeutic maximal blood concentration, ref product labeling
[13] = therapeutic maximal blood concentration, ref product labeling

Row | SMILES | State 3 respiration driven by succinate at 1XCmax ([1]; 1XCmax) | State 4 respiration driven by succinate at 1XCmax ([1]; 1XCmax) | State 3 respiration driven by succinate at 2.5XCmax ([1]; 2.5XCmax) | State 4 respiration driven by succinate at 2.5XCmax ([1]; 2.5XCmax) | State 3 respiration driven by succinate at 5XCmax ([1]; 5XCmax) | State 4 respiration driven by succinate at 5XCmax ([1]; 5XCmax) | State 3 respiration driven by succinate at 10XCmax ([1]; 10XCmax) | State 4 respiration driven by succinate at 10XCmax ([1]; 10XCmax) | RCC I at 10XCmax [2] | RCC II at 1.0XCmax [3] | RCC II at 2.5XCmax [3] | RCC II at 5XCmax [3] | RCC II at 10XCmax [3] | MMP measured by Rhodamine 123 at 1XCmax [5] | MMP measured by Rhodamine 123 at 2.5XCmax [5] | MMP measured by Rhodamine 123 at 5XCmax [5] | MMP measured by Rhodamine 123 at 10XCmax [5] | Swelling 1XCmax [6] | Swelling 2.5XCmax [6] | Cytochrome c release 1XCmax [7] | further results
1 | Cc1cn(-c2cc(NC(=O)c3ccc(C)c(Nc4nccc(-c5cccnc5)n4)c3)cc(C(F)(F)F)c2)cn1 [Nilotinib] | 0 | 0 | 0 | 0 | 0 | 0 | 0 | 0 | 0 | 0 | 0 | 0 | 0 | 0 | 0 | 0 | 0 | 0 | 0 | 0 | RCC V at 5XCmax [4]: 0; Swelling 5XCmax [6]: 0; Swelling 10XCmax [6]: 0; Cytochrome c release 2.5XCmax [7]: 0; Cytochrome c release 5XCmax [7]: 0; Cytochrome c release 10XCmax [7]: 0; Labeling for cardiotoxicity [8]: BBW: QT Interval Prolongation; Potential for cardiotoxicity (based on labeling) [8]: 1; Cmax ([9]; human therapeutic Cmax at FDA recommended dosages, ref product labeling and drug approval packages at the official FDA website): 4.27 µM; Cmax [9, 12]: 4.27 µM; Cmax [9, 13]: 2260 ng/mL; ROS measured by CM-H2DCFDA at 1XCmax [10]: 0; ROS measured by CM-H2DCFDA at 2.5XCmax [10]: 0; ROS measured by CM-H2DCFDA at 5XCmax [10]: 0; ROS measured by CM-H2DCFDA at 10XCmax [10]: 0
2 | CS(=O)(=O)CCNCc1ccc(-c2ccc3ncnc(Nc4ccc(OCc5cccc(F)c5)c(Cl)c4)c3c2)o1 [lapatinib ditosylate monohydrate] | 0 | 0 | 0 | 0 | 0 | 0 | 0 | 0 | 0 | 0 | 0 | 0 | 0 | 0 | 0 | 0 | 0 | 0 | 0 | 0 | RCC V at 5XCmax [4]: 0; Swelling 5XCmax [6]: 0; Swelling 10XCmax [6]: 0; Cytochrome c release 2.5XCmax [7]: 0; Cytochrome c release 5XCmax [7]: 0; Cytochrome c release 10XCmax [7]: 7.91±2.25 percentage of the positive control group; Labeling for cardiotoxicity [8]: W&P: Decreased Left Ventricular Ejection Fraction; QT Prolongation; Potential for cardiotoxicity (based on labeling) [8]: 1; Cmax [9, 13]: 2430 ng/mL; DILI potential (based on labeling) ([11]; ref product labeling): 1; Labeling for DILI ([11]; in vivo): BBW: fatal DILI; ROS measured by CM-H2DCFDA at 1XCmax [10]: 0; ROS measured by CM-H2DCFDA at 2.5XCmax [10]: 0; ROS measured by CM-H2DCFDA at 5XCmax [10]: 0; ROS measured by CM-H2DCFDA at 10XCmax [10]: 0
3 | CNC(=O)c1cc(Oc2ccc(NC(=O)Nc3ccc(Cl)c(C(F)(F)F)c3)cc2)ccn1 [sorafenib tosylate] | 0 | 1.50±0.21 | 0.62±0.05 | 1.43±0.06 | 0.40±0.01 | 0 | 0 | 3.34±0.45 | 0 | 0 | 0 | 0 | 0 | 4037±631* | 4075±739* | 3781±744* | 3380±680* | 0 | 0.29±0.02 | 0 | State 4 respiration driven by glutamate/malate at 1XCmax ([1]; 1XCmax): 2.55±0.27; State 3 respiration driven by glutamate/malate at 2.5XCmax ([1]; 2.5XCmax): 1.57±0.06; State 4 respiration driven by glutamate/malate at 2.5XCmax ([1]; 2.5XCmax): 4.92±0.09; State 4 respiration driven by glutamate/malate at 5XCmax ([1]; 5XCmax): 3.69±0.12; State 4 respiration driven by glutamate/malate at 10XCmax ([1]; 10XCmax): 5.00±1.92; RCC V at 10XCmax ([4]; 10XCmax): 65.55±6.34; Cytochrome c release 2.5XCmax [7]: 0; Cytochrome c release 5XCmax [7]: 12.12±5.17 percentage of the positive control group; Labeling for cardiotoxicity [8]: W&P: Cardiac Ischemia and/or Infarction; QT Interval Prolongation; Potential for cardiotoxicity (based on labeling) [8]: 1; Cmax [9, 12]: 4.3 µM; DILI potential (based on labeling) ([11]; ref product labeling): 1; Labeling for DILI ([11]; BBW: black box warning, W&P: Warnings and Precautions, ref product labeling): W&P: fatal DILI; ROS measured by CM-H2DCFDA at 1XCmax [10]: 0; ROS measured by CM-H2DCFDA at 2.5XCmax [10]: 0; ROS measured by CM-H2DCFDA at 5XCmax [10]: 0; ROS measured by CM-H2DCFDA at 10XCmax [10]: 0
